Test [1] has as its target T1, Human PDGFRβ, cytoplasmic domain (GST-PDGFRβ) (Homo sapiens, UniProt P09619).
T1 construct: made in house
As to the kind of experiment: Human PDGFRβ biochemical inhibition assay (off-chip Mobility Shift Assay). The method, boiled down: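 GST-tagged cytoplasmic domain (aa 557-1106) from baculovirus was incubated 1 h at room temperature with compound, CSKtide, ATP at Km and Mg²⁺ in HEPES buffer, pH 7.5. Phosphorylated and unphosphorylated peptide were separated by off-chip mobility shift, and the product ratio P/(P+S) gave percent inhibition.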

Test [2] concerns the target T2, Human PDGFRα, cytoplasmic domain (GST-PDGFRα) (Homo sapiens, UniProt P16234).
T2 construct: made in house
Nature of the test: Human PDGFRα biochemical inhibition assay (off-chip Mobility Shift Assay).

By IC50 is commonly meant the concentration that inhibits the measured activity by half.

T2 sequence (P16234 550-1089 T674I): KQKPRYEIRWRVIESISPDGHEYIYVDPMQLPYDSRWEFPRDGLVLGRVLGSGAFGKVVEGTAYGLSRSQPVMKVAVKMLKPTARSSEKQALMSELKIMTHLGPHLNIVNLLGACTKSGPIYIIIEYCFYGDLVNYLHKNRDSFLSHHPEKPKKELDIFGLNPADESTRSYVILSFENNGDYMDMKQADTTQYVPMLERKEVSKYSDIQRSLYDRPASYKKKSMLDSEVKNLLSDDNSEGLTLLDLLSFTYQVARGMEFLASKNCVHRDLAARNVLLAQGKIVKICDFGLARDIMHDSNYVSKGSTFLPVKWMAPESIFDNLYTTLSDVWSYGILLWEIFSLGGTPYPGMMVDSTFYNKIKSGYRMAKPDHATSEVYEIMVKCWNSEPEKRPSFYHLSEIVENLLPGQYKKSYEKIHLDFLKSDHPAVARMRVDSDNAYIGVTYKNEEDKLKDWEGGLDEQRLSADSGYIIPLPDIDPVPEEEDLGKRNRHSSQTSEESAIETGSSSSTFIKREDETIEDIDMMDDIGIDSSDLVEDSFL
T1 sequence (P09619 with tags, fused parts or gaps): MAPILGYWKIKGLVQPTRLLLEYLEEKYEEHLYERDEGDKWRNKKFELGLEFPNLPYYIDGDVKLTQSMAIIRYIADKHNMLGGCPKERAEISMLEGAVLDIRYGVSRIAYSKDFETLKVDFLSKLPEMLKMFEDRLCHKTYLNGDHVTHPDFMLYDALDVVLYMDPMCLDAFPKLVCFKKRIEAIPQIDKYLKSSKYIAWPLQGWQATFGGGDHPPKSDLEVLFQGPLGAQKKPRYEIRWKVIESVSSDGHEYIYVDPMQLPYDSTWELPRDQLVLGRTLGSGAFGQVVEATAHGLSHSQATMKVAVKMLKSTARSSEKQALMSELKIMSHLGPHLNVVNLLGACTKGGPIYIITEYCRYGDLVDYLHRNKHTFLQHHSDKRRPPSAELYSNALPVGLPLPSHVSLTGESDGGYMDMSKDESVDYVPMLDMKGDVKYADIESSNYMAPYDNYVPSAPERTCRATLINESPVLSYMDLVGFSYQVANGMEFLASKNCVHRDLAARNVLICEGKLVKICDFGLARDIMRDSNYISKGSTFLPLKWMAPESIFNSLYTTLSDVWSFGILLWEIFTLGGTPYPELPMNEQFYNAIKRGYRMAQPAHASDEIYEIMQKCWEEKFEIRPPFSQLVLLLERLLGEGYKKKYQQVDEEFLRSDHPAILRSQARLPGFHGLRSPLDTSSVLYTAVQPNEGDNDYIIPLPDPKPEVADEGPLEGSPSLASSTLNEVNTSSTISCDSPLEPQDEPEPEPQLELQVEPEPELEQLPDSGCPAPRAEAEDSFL

Consider `CCn1cc2ncc(N[C@@H](C)c3cc(NC(=O)c4ccc(CN5CCN(C)CC5)c(C)c4)ccc3C)nc2n1` [Compound 524, (S)-N-(3-(1-((2-ethyl-2H-pyrazolo[3,4-b]pyrazin-6-yl)amino)ethyl)-4-methylphenyl)-3-methyl-4-((4-methylpiperazin-1-yl)methyl)benzamide], for which the IC50 in test [1] and in test [2] was less than 300 nM throughout.
As to `CCn1cc2ncc(N[C@@H](C)c3cccc(NC(=O)Nc4cnc(N(C)C)c(C)c4)c3)nc2n1` [Compound 742, (S)-1-(6-(dimethylamino)-5-methylpyridin-3-yl)-3-(3-(1-((2-ethyl-2H-pyrazolo[3,4-b]pyrazin-6-yl)amino)ethyl)phenyl)urea], the IC50 in test [1] and in test [2] was less than 300 nM each time.
Take `C[C@H](Nc1cnc2cn[nH]c2n1)c1cccc(NC(=O)c2cncc(C(C)(C)O)c2)c1` [Compound 95, (S)-N-(3-(1-((1H-pyrazolo[3,4-6]pyrazin-6-yl)amino)ethyl)phenyl)-5-(2-hydroxypropan-2-yl)nicotinamide]: the IC50 in test [1] and in test [2] was less than 300 nM throughout.
With `CCn1cc2ncc(N[C@@H](C)c3cccc(NC(=O)c4cnc(NCCOC)c(C)c4)c3)nc2n1` [Compound 392, (S)-N-(3-(1-((2-ethyl-2H-pyrazolo[3,4-b]pyrazin-6-yl)amino)ethyl)phenyl)-6-((2-methoxyethyl)amino)-5-methylnicotinamide], the IC50 was not below 1000 nM in test [1] and 300 to 1000 nM in test [2].
The corresponding values for `CNc1ccc(C(=O)Nc2cccc([C@H](C)Nc3cnc4cnn(C)c4n3)c2)cn1` [Compound 120, (S)-N-(3-(1-((1-methyl-1H-pyrazolo[3,4-b]pyrazin-6-yl)amino)ethyl)phenyl)-6-(methylamino)nicotinamide] are 300 to 1000 nM and less than 300 nM.
The corresponding values for `CCn1cc2ncc(N[C@@H](C)c3cccc(NC(=O)c4ccc(CN5CC(F)C5)c(Cl)c4)c3)nc2n1` [Compound 495, (S)-3-chloro-N-(3-(1-((2-ethyl-2H-pyrazolo[3,4-b]pyrazin-6-yl)amino)ethyl)phenyl)-4-((3-fluoroazetidin-1-yl)methyl) benzamide] are less than 300 nM and less than 300 nM.
The matching figures for `C[C@H](Nc1cnc2cnn(C)c2n1)c1cccc(NC(=O)c2cnn(CC3CC3)c2)c1` [Compound 152, (S)-1-(cyclopropylmethyl)-N-(3-(1-((1-methyl-1H-pyrazolo[3,4-b]pyrazin-6-yl)amino)ethyl)phenyl)-1H-pyrazole-4-carboxamide]: less than 300 nM and less than 300 nM.
With `COc1ncc(C(=O)Nc2cccc([C@H](C)Nc3cnc4cnn(C)c4n3)c2)cc1Cl` [Compound 187, (S)-5-chloro-6-methoxy-N-(3-(1-((1-methyl-1H-pyrazolo[3,4-b]pyrazin-6-yl)amino)ethyl)phenyl)nicotinamide], the IC50 in test [1] and in test [2] was less than 300 nM each time.
On to `C[C@H](Nc1cnc2cn(C3CC3)nc2n1)c1cc(NC(=O)c2cnc(C(F)(F)F)s2)ccc1F` [Compound 399, (S)-N-(3-(1-((2-cyclopropyl-2H-pyrazolo[3,4-b]pyrazin-6-yl)amino)ethyl)-4-fluorophenyl)-2-(trifluoromethyl)thiazole-5-carboxamide], for which the IC50 in test [1] and in test [2] was less than 300 nM in each case.
With `CCNc1ccc(C(=O)Nc2cccc([C@H](C)Nc3cnc4cn(CC)nc4n3)c2)cn1` [Compound 394, (S)-N-(3-(1-((2-ethyl-2H-pyrazolo[3,4-b]pyrazin-6-yl)amino)ethyl)phenyl)-6-(ethylamino)nicotinamide], the IC50 in test [1] was not below 1000 nM; in test [2], less than 300 nM.
The corresponding values for `CCn1ccc2ncc(N[C@@H](C)c3cccc(NC(=O)c4cncc(C)c4)c3)nc21` [Compound 82, (S)-N-(3-(1-((5-ethyl-5H-pyrrolo[2,3-b]pyrazin-3-yl)amino)ethyl)phenyl)-5-methylnicotinamide] are 300 to 1000 nM and less than 300 nM.
The corresponding values for `CCn1cc2ncc(N[C@@H](C)c3cc(NC(=O)c4cc(C)c(CN5CCOCC5)c(F)c4)ccc3C)nc2n1` [Compound 526, (S)-N-(3-(1-((2-ethyl-2H-pyrazolo[3,4-b]pyrazin-6-yl)amino)ethyl)-4-methylphenyl)-3-fluoro-5-methyl-4-(morpholinomethyl)benzamide] are less than 300 nM and less than 300 nM.
Take `CCn1cc2ncc(N[C@@H](C)c3cc(NC(=O)Cc4ccc(Cl)c(C)n4)ccc3F)nc2n1` [Compound 668, (S)-2-(5-chloro-6-methylpyridin-2-yl)-N-(3-(1-((2-ethyl-2H-pyrazolo[3,4-b]pyrazin-6-yl)amino)ethyl)-4-fluorophenyl)acetamide]: the IC50 in test [1] and in test [2] was less than 300 nM throughout.
As to `CC(C)c1cc(C(=O)Nc2cccc([C@H](C)Nc3cnc4cnn(C)c4n3)c2)n[nH]1` [Compound 161, (S)-5-isopropyl-N-(3-(1-((1-methyl-1H-pyrazolo[3,4-b]pyrazin-6-yl)amino)ethyl)phenyl)-1H-pyrazole-3-carboxamide], the IC50 in test [1] and in test [2] was less than 300 nM in each case.
With `CCn1cc2ncc(N[C@@H](C)c3cccc(NC(=O)c4ccc(NC(C)C)c(C)c4)c3)nc2n1` [Compound 405, (S)-N-(3-(1-((2-ethyl-2H-pyrazolo[3,4-b]pyrazin-6-yl)amino)ethyl)phenyl)-4-(isopropylamino)-3-methylbenzamide], the IC50 in test [1] and in test [2] was less than 300 nM in each case.
For the compound `CCn1cc2ncc(N[C@@H](C)c3cc(NC(=O)Cc4ccc(C5CC5)cn4)ccc3F)nc2n1` [Compound 655, (S)-2-(5-cyclopropylpyridin-2-yl)-N-(3-(1-((2-ethyl-2H-pyrazolo[3,4-b]pyrazin-6-yl)amino)ethyl)-4-fluorophenyl) acetamide], the IC50 in test [1] was not below 1000 nM; in test [2], less than 300 nM.
The corresponding values for `CCn1cc2ncc(N[C@@H](C)c3cc(NC(=O)Cc4ccc5c(n4)CCC5)ccc3C)nc2n1` [Compound 719, (S)-2-(6,7-dihydro-5H-cyclopenta[b]pyridin-2-yl)-N-(3-(1-((2-ethyl-2H-pyrazolo[3,4-b]pyrazin-6-yl)amino)ethyl)-4-methylphenyl)acetamide] are less than 300 nM and less than 300 nM.
In the case of `CCn1cc2ncc(N[C@@H](C)c3cc(NC(=O)Cc4ccc(F)c(CN5CCN(C)CC5)n4)ccc3C)nc2n1` [Compound 726, (S)-N-(3-(1-((2-ethyl-2H-pyrazolo[3,4-b]pyrazin-6-yl)amino)ethyl)-4-methylphenyl)-2-(5-fluoro-6-((4-methylpiperazin-1-yl)methyl)pyridin-2-yl)acetamide], the IC50 in test [1] was 300 to 1000 nM; in test [2], less than 300 nM.
As for `COc1cncc(C(=O)Nc2cccc([C@H](C)Nc3cnc4cnn(C)c4n3)c2)c1` [Compound 104, (S)-5-methoxy-N-(3-(1-((1-methyl-1H-pyrazolo[3,4-b]pyrazin-6-yl)amino)ethyl)phenyl)nicotinamide], the IC50 in test [1] and in test [2] was less than 300 nM in each case.
For `Cc1cncc(C(=O)Nc2cccc([C@H](C)Nc3cnc4cnn(CC(F)F)c4n3)c2)c1` [Compound 183, (S)-N-(3-(1-((1-(2,2-difluoroethyl)-1H-pyrazolo[3,4-b]pyrazin-6-yl)amino)ethyl)phenyl)-5-methylnicotinamide], the values for the IC50 in test [1] and in test [2] were 300 to 1000 nM and less than 300 nM, respectively.
The corresponding values for `CCn1cc2ncc(N[C@@H](C)c3cccc(NC(=O)c4ccc(N(C)C)nc4)c3)nc2n1` [Compound 377, (S)-6-(dimethylamino)-N-(3-(1-((2-ethyl-2H-pyrazolo[3,4-b]pyrazin-6-yl)amino)ethyl)phenyl)nicotinamide] are 300 to 1000 nM and 300 to 1000 nM.
The matching figures for `CCn1cc2ncc(N[C@@H](C)c3cccc(NC(=O)c4ccc(CN5CCN(C)CC5)c(C)c4)c3)nc2n1` [Compound 402, (S)-N-(3-(1-((2-ethyl-2H-pyrazolo[3,4-b]pyrazin-6-yl)amino)ethyl)phenyl)-3-methyl-4-((4-methylpiperazin-1-yl)methyl)benzamide]: less than 300 nM and less than 300 nM.
The corresponding values for `CCn1cc2ncc(N[C@@H](C)c3cc(NC(=O)c4cncc(C)c4)ccc3C)nc2n1` [Compound 510, (S)-N-(3-(1-((2-ethyl-2H-pyrazolo[3,4-b]pyrazin-6-yl)amino)ethyl)-4-methylphenyl)-5-methylnicotinamide] are less than 300 nM and less than 300 nM.
Take `CCn1cc2ncc(N[C@@H](C)c3cc(NC(=O)c4ccc(CN5CCCC5)c(C)c4)ccc3C)nc2n1` [Compound 522, (S)-N-(3-(1-((2-ethyl-2H-pyrazolo[3,4-b]pyrazin-6-yl)amino)ethyl)-4-methylphenyl)-3-methyl-4-(pyrrolidin-1-ylmethyl)benzamide]: the IC50 in test [1] and in test [2] was less than 300 nM in each case.
For `C[C@H](Nc1cnc2cnn(C)c2n1)c1cccc(NC(=O)c2cnn(C3CCC3)c2)c1` [Compound 151, (S)-1-cyclobutyl-N-(3-(1-((1-methyl-1H-pyrazolo[3,4-b]pyrazin-6-yl)amino)ethyl)phenyl)-1H-pyrazole-4-carboxamide], the IC50 in test [1] and in test [2] was less than 300 nM throughout.
In the case of `CCn1cc2ncc(N[C@@H](C)c3cc(NC(=O)Cc4ccc(Cl)cn4)ccc3F)nc2n1` [Compound 650, (S)-2-(5-chloropyridin-2-yl)-N-(3-(1-((2-ethyl-2H-pyrazolo[3,4-b]pyrazin-6-yl)amino)ethyl)-4-fluorophenyl)acetamide], the results for the IC50 in test [1] and in test [2] were 300 to 1000 nM and less than 300 nM, respectively.
As for `CCn1cc2ncc(N[C@@H](C)c3cccc(NC(=O)Nc4cnn(CC5CC5)c4)c3)nc2n1` [Compound 741, (S)-1-(1-(cyclopropylmethyl)-1H-pyrazol-4-yl)-3-(3-(1-((2-ethyl-2H-pyrazolo[3,4-b]pyrazin-6-yl)amino)ethyl)phenyl)urea], the results for the IC50 in test [1] and in test [2] were not below 1000 nM and less than 300 nM, respectively.

Values taken from patent publication US20230102554A1 (GB002, INC., priority 2019, published 2023).
